Assay results: EPA's ToxRefDB 2

How the values were obtained:
rat [1] = conditions: Subchronic oral toxicity in rodents, long evans, Feed, dose end: 96 day, group: systemic, systemic / in life observation / body weight / body weight gain + systemic / in life observation / food consumption / food efficiency
mouse [2] = conditions: Subchronic oral toxicity in rodents, b6c3f1, Feed, dose end: 13 week, group: systemic, systemic / in life observation / mortality / mortality
mouse [3] = conditions: Carcinogenicity; b6c3f1; Oral; Feed; dose end: 103 week; group: systemic; systemic / in life observation / clinical signs / alopecia + systemic / in life observation / clinical signs / aggressive behavior
rat [4] = conditions: Subchronic oral toxicity in rodents, fischer, Feed, dose end: 13 week, group: systemic, systemic / in life observation / body weight / body weight gain
rat [5] = conditions: Subchronic inhalation toxicity, long evans, Whole-Body, dose end: 58 day, group: systemic, systemic / in life observation / clinical signs / abnormal movements
mouse [6] = conditions: Subchronic oral toxicity in rodents, b6c3f1, Feed, dose end: 90 day, group: systemic
dog [7] = conditions: Subchronic oral toxicity in nonrodent, beagle, Feed, dose end: 13 week, group: systemic
rat [8] = conditions: Subchronic oral toxicity in rodents, fischer, Feed, dose end: 90 day, group: systemic, systemic / clinical chemistry / thyroxine (t4) / thyroxine (t4), total + systemic / clinical chemistry / triiodothyronine (t3) / …
rat [9] = conditions: Combined chronic toxicity/carcinogenicity, fischer, Oral, [Not Specified], dose end: 24 month, group: systemic
dog [10] = conditions: Subchronic oral toxicity in nonrodent, beagle, Capsule, dose end: 13 week, group: systemic, systemic / clinical chemistry / creatinine / creatinine + systemic / clinical chemistry / urea nitrogen / urea nitrogen + systemic / in life…
dog [11] = conditions: Chronic toxicity, beagle, Oral, Feed, dose end: 52 week, group: systemic
mouse [12] = conditions: Combined chronic toxicity/carcinogenicity; b6c3f1; Oral; Feed; dose end: 104 week; group: systemic; systemic / organ weight / kidney / absolute + systemic / organ weight / kidney / relative to body weight + systemic / pathology microscopic…
rat [13] = conditions: Prenatal developmental toxicity study, fischer, Oral, Gavage/Intubation, dose end: 15 GD
rat [14] = conditions: Combined chronic toxicity/carcinogenicity; sprague dawley; Oral; Feed; dose end: 104 week; group: systemic; systemic / in life observation / clinical signs / convulsions
rat [15] = conditions: Subchronic oral toxicity in rodents, sprague dawley, Feed, dose end: 90 day, group: systemic, systemic / in life observation / body weight / body weight + systemic / in life observation / body weight / body weight gain + systemic / in…
[16] = systemic / pathology microscopic / kidney / [other] + systemic / pathology microscopic / liver / nuclear alteration + systemic / pathology …
[17] = systemic / in life observation / body weight / body weight + systemic / in life observation / body weight / body weight gain + systemic / in…
[18] = systemic / clinical chemistry / thyroxine (t4) / thyroxine (t4), total + systemic / organ weight / thyroid gland / absolute + systemic / …
[19] = systemic / pathology gross / thyroid gland / mass
[20] = systemic / clinical chemistry / alanine aminotransferase (alt/sgpt) / alanine aminotransferase (alt/sgpt) + systemic / clinical chemistry / …
[21] = systemic / in life observation / body weight / body weight gain + systemic / pathology microscopic / kidney / pigmentation
[22] = group: developmental, developmental / developmental malformation / bone / full supernumerary + developmental / developmental malformation / bone / incomplete …
[23] = group: maternal, systemic / in life observation / body weight / body weight gain

For COC(=O)c1ccc(C(=O)OC)cc1 [Dimethyl terephthalate], the LEL (rat [1]) was 500 mg/kg/day, the LOAEL (rat [1]) was > 500 mg/kg/day and the NEL (rat [1]) was 250 mg/kg/day. The NOAEL (rat [1]) was ≥ 500 mg/kg/day, the LEL (mouse [2]) was 375 mg/kg/day and the LOAEL (mouse [2]) was > 3000 mg/kg/day. For the same compound, the NEL (mouse [2]) was 262 mg/kg/day, the NOAEL (mouse [2]) was ≥ 3000 mg/kg/day and the LEL (mouse [3]) was 375 mg/kg/day. The LOAEL (mouse [3]) was > 750 mg/kg/day, the NEL (mouse [3]) was < 375 mg/kg/day and the NOAEL (mouse [3]) was ≥ 750 mg/kg/day. It also gave an LEL (rat [4]) of 500 mg/kg/day, an LOAEL (rat [4]) of 500 mg/kg/day and an NEL (rat [4]) of 250 mg/kg/day. For the same compound, the NOAEL (rat [4]) was 250 mg/kg/day, the LEL (rat [5]) was 4 mg/kg/day and the LOAEL (rat [5]) was > 4 mg/kg/day. For the same compound, the NEL (rat [5]) was 0.7 mg/kg/day and the NOAEL (rat [5]) was ≥ 4 mg/kg/day.

Compound O=C(O)COc1ccc(Cl)cc1Cl [2,4-Dichlorophenoxyacetic acid] has an LEL (mouse [6]; systemic / clinical chemistry / thyroxine (t4) / thyroxine (t4), free + systemic / in life observation / food consumption / food consumption) of 98.2 mg/kg/day, an LOAEL (mouse [6]; [16]) of 293 mg/kg/day and an NEL (mouse [6]; [16]) of 14.7 mg/kg/day. For the same compound, the NOAEL (mouse [6]; [16]) was 98.2 mg/kg/day, the LEL (dog [7]; [17]) was 0.5 mg/kg/day and the NEL (dog [7]; [17]) was < 0.5 mg/kg/day. It also gave an NOAEL (dog [7]; [17]) of 1 mg/kg/day, an LOAEL (dog [7]; systemic / in life observation / body weight / body weight gain + systemic / clinical chemistry / alanine aminotransferase (alt/sgpt) / …) of 3.75 mg/kg/day and an LEL (rat [8]) of 100 mg/kg/day. For the same compound, the LOAEL (rat [8]) was 100 mg/kg/day, the NEL (rat [8]) was 15 mg/kg/day and the NOAEL (rat [8]) was 15 mg/kg/day. It also gave an LOAEL (rat [9]; [18]) of 73.1 mg/kg/day, an NOAEL (rat [9]; [18]) of 4.89 mg/kg/day and an LEL (rat [9]; [19]) of 4.89 mg/kg/day. For the same compound, the NEL (rat [9]; [19]) was < 4.89 mg/kg/day, the LEL (dog [10]) was 3 mg/kg/day and the LOAEL (dog [10]) was 3 mg/kg/day. The NEL (dog [10]) was 1 mg/kg/day, the NOAEL (dog [10]) was 1 mg/kg/day and the LOAEL (dog [11]; [20]) was 5 mg/kg/day. For the same compound, the NOAEL (dog [11]; [20]) was 1 mg/kg/day, the LEL (dog [11]; [21]) was 1 mg/kg/day and the NEL (dog [11]; [21]) was < 1 mg/kg/day. The LEL (mouse [12]) was 62.5 mg/kg/day, the LOAEL (mouse [12]) was 62.5 mg/kg/day and the NEL (mouse [12]) was 5 mg/kg/day. It also gave an NOAEL (mouse [12]) of 5 mg/kg/day, an LEL (rat [13]; [22]) of 75 mg/kg/day and an LOAEL (rat [13]; [22]) of 75 mg/kg/day. The NEL (rat [13]; [22]) was 25 mg/kg/day, the NOAEL (rat [13]; [22]) was 25 mg/kg/day and the LEL (rat [13]; [23]) was 75 mg/kg/day. The LOAEL (rat [13]; [23]) was 75 mg/kg/day, the NEL (rat [13]; [23]) was 25 mg/kg/day and the NOAEL (rat [13]; [23]) was 25 mg/kg/day.

In the case of N#Cc1nn(-c2c(Cl)cc(C(F)(F)F)cc2Cl)c(N)c1C(F)(F)F [Fipronil-desulfinyl], the LEL (rat [14]) is reported as 0.032 mg/kg/day, the LOAEL (rat [14]) is reported as 0.032 mg/kg/day and the NEL (rat [14]) is reported as < 0.032 mg/kg/day. The NOAEL (rat [14]) was < 0.032 mg/kg/day, the LEL (rat [15]) was 0.594 mg/kg/day and the LOAEL (rat [15]) was 0.594 mg/kg/day. The NEL (rat [15]) was 0.177 mg/kg/day and the NOAEL (rat [15]) was 0.177 mg/kg/day.
